Results as given in patent publication US12357636B2 (Urovant Sciences GmbH, priority 2018, dated 2025).
Read-outs that look alike come from different tables or passages of the source.

Legend:
men and women with OAB = assay: Phase 2b study in OAB: efficacy (voiding diary); format: in vivo, human; details: tolterodine ER 4 mg QD
Source text: Part 2 was designed to continue to assess the safety and efficacy of concomitant dosing. […] Subjects in both Part 1 and Part 2 had the option of enrolling in a 1-year extension. Participants were required to keep a voiding diary, recording the occurrence of each strong urge, total incontinence, and urge incontinence episode. Efficacy data for Part 1 and Part 2 are summarized herein.
The total number of urgency incontinence episodes must have exceeded the total number of stress incontinence episodes for all subjects.
Conversely, a dose dependent effect on urge incontinence or total incontinence was not observed.

[1] = tested on: patients with overactive bladder
Source text: A placebo group was included in the main study, and a group that received tolterodine monotherapy was included in the main study and in the extension.

patients with OAB = assay: Phase 2b study: cardiovascular safety, orthostatic AEs, blood pressure and heart rate changes (Table 17); format: in vivo, human; details: tolterodine 4 mg
Source text: None led to discontinuation. The overall incidence of orthostatic symptoms was low.
Small differences in the percent of subjects exceeding categorical heart rate and blood pressure thresholds for vibegron were similar to those in the tolterodine arm.

[2] = tested on: men and women with overactive bladder; assay: Phase 3 study vibegron 75 mg vs placebo and tolterodine, 12 weeks, OAB: efficacy (Tables 21-25); format: in vivo, human; details: for Micturitions: Week 12 CFB Mean / Urgency Episodes: Week 12 CFB Mean / UUI: Week 12 CFB Mean: descriptive statistics; for UUI: Week 12 CFB Mean: daily UUI episodes
Experimental: Enrollment of patients included individuals with OAB Wet (those with UUI, the involuntary loss of urine accompanied by urgency) and OAB Dry (those without UUI). A total of 1,518 patients were randomized across 215 study sites into one of three groups for a 12-week treatment period.
The study consisted of a Screening Period (1 to 5 weeks), a single-blind Run-in Period (2 weeks), a randomized double-blind Treatment Period (12 weeks), and a Follow-up Period (4 weeks).
Tolterodine ER 4 mg was the active control. […] Between the Baseline and Week 12 Visits, patients had study assessments at Week 4 and Week 8.
For the analysis of the co-primary endpoints (change from baseline in average number of daily micturitions at Week 12 and change from baseline in average number of daily urge urinary incontinence episodes at Week 12, and placebo adjustment of each), a mixed model for repeated measure (MMRM) with restricted maximum likelihood estimation was used. This model corrects for dropout and accounts for the fact that measurements taken on the same patient over time tend to be correlated by using all available information on patients within the same covariate set to derive an estimate of the treatment effect for a dropout-free population. The analysis model for each efficacy endpoint includes terms for treatment, visit, OAB Type (Wet vs Dry), Sex (Female vs Male), Region (US vs Rest of World), baseline score, and interaction of visit by treatment.
Primary inferences were drawn from treatment differences for the changes from baseline derived from the MMRM models at Week 12. As part of secondary objectives, the treatment differences for each post baseline visit were also derived using the same MMRM model.
An unstructured covariance matrix was used to model the correlation among repeated measurements. The Kenward-Roger adjustment was used with restricted (or residual) maximum likelihood (REML) to make statistical inference. If the unstructured covariance model fails to converge with the default Newton-Raphson algorithm, the Fisher scoring algorithm or other appropriate methods can be used to provide initial values of the covariance parameters. In the rare event that none of the above methods yield convergence, a structured covariance would be used to model the correlation among repeated measurements.
The change from baseline efficacy endpoints was analyzed using the same MMRM model described for co-primary endpoints.
Analysis of the efficacy endpoints of proportion of patients with at least 75% reduction in the average number of daily UUI episodes at Week 12 and proportion of patients with 50% reduction in the average number of daily urgency episodes at Week 12 was analyzed using the Cochran-Mantel-Haenszel risk difference estimate. Missing Week 12 data was analyzed using multiple imputation. The estimated difference in the proportion of responders and 95% confidence interval for the difference was calculated using the Cochran-Mantel-Haenszel risk difference estimate stratified by OAB Type (Wet vs Dry) and Sex (Female vs Male), with weights proposed by Greenland and Robins.
The same statistical methods that were used to analyze the co-primary and secondary efficacy endpoints were used for the exploratory analyses. Exploratory responder analyses were analyzed using the same Cochran-Mantel-Haenszel model as described above for secondary endpoints.

[3] = tested on: men and women with overactive bladder; assay: Phase 3 study vibegron 75 mg: post-void residual urine volume (Tables 26-28); format: in vivo, human
Source text: The risk of acute urinary retention or morbidities related to an increase in Post-Void Residual (PVR) is a concern with antimuscarinic therapy that promotes smooth muscle relaxation by inhibiting acetylcholine-induced smooth muscle contraction. If, during contraction, the bladder cannot generate enough pressure to overcome the outlet resistance in the urethra, either because of poor detrusor contractility or profound obstruction (most commonly from BPH), acute urinary retention or incomplete emptying of the bladder may result.
The volume of urine that remains in the bladder after voiding (PVR) is an objective measurement that may serve as a proxy for impaired ability to void.
PVR were performed via ultrasound at the visits indicated in the Schedule of Activities.
In addition, the data on the Post Void Residual Urine Volume (PVR) in all males and males with a medical history of BPH is shown in Tables 26 and 27, respectively.

[4] = drug interaction of vibegron and metoprolol succinate (CYP2D6 substrate); format: in vivo, human
[5] = mass balance study with [14C]vibegron; details: 2 and 4 hr
[6] = counts based on 3 consecutive post-baseline visits
[7] = Week 12, co-primary endpoint, once-daily vibegron 75 mg or tolterodine
[8] = Week 12, key secondary endpoint, once-daily vibegron 75 mg or tolterodine
[9] = Males with medical history of BPH
[10] = all males, vibegron 75 mg or tolterodine ER 4 mg QD
[11] = metoprolol 100 mg, vibegron 75 mg

Cc1ccc(O)c([C@H](CCN(C(C)C)C(C)C)c2ccccc2)c1 [Tolterodine ER, tolterodine]
Micturitions difference from placebo in LS means, Week 8 (men and women with OAB): −0.54 | Urgency Episodes difference from placebo in LS means, Week 8 (men and women with OAB): −0.94 | Total Incontinence Episodes difference from placebo in LS means, Week 8 (men and women with OAB; OAB Wet): −0.34 | Urgency Incontinence Episodes difference from placebo in LS means, Week 8 (men and women with OAB; OAB Wet): −0.46 | Accidental overdose ([1]; ER 4 mg QD): 6 (2.3) n (%) | Alanine aminotransferase increased ([1]; ER 4 mg QD): 1 (0.4) n (%) | Arthralgia ([1]; ER 4 mg QD): 3 (1.2) n (%) | Aspartate aminotransferase increased ([1]; ER 4 mg QD): 0 (0.0) n (%) | Constipation ([1]; ER 4 mg QD): 5 (1.9) n (%) | Diarrhea ([1]; ER 4 mg QD): 9 (3.5) n (%) | Discontinuation due to AE ([1]; ER 4 mg QD): 4 (1.6) n (%) | Discontinuation due to drug-related AE ([1]; ER 4 mg QD): 0 n (%) | Dizziness ([1]; ER 4 mg QD): 5 (1.9) n (%) | Drug-related AE ([1]; ER 4 mg QD): 42 (16.3) n (%) | Dry eye ([1]; ER 4 mg QD): 10 (3.9) n (%) | Dry mouth ([1]; ER 4 mg QD): 22 (8.6) n (%) | Dysuria ([1]; ER 4 mg QD): 3 (1.2) n (%) | Fatigue ([1]; ER 4 mg QD): 6 (2.3) n (%) | Headache ([1]; ER 4 mg QD): 9 (3.5) n (%) | Nasopharyngitis ([1]; ER 4 mg QD): 4 (1.6) n (%) | Nausea ([1]; ER 4 mg QD): 6 (2.3) n (%) | Osteoarthritis ([1]; ER 4 mg QD): 0 (0.0) n (%) | Pain in extremity ([1]; ER 4 mg QD): 1 (0.4) n (%) | Serious AE ([1]; ER 4 mg QD): 3 (1.2) n (%) | Sinusitis ([1]; ER 4 mg QD): 1 (0.4) n (%) | Urinary tract infection ([1]; ER 4 mg QD): 12 (4.7) n (%) | ≥1 AE ([1]; ER 4 mg QD): 116 (45.1) n (%) | Serious AE ([1]; ER 4 mg QD, listed as tolterodine): 3 n (%) | frequency of injuries ([1]; Phase 2, tolterodine arm vs vibegron): 2.1% | DBP Change from Baseline [≥] 5 mm Hg, n/N (%) (patients with OAB; [6]): 30/242 (12.4) % | DBP Change from Baseline [≥] 10 mm Hg, n/N (%) (patients with OAB; [6]): 13/242 (5.4) % | DBP Change from Baseline ≥15 mm Hg, n/N (%) (patients with OAB; [6]): 3/242 (1.2) % | HR Change from Baseline [≥] 5 mm Hg, n/N (%) (patients with OAB; [6]): 29/242 (12.0) % | HR Change from Baseline [≥] 10 bpm, n/N (%) (patients with OAB; [6]): 11/242 (4.5) % | HR Change from Baseline ≥15 bpm, n/N (%) (patients with OAB; [6]): 4/242 (1.7) % | SBP Change from Baseline [≥] 5 mm Hg, n/N (%) (patients with OAB; [6]): 41/242 (16.9) % | SBP Change from Baseline [≥] 10 mm Hg, n/N (%) (patients with OAB; [6]): 19/242 (7.9) % | SBP Change from Baseline ≥15 mm Hg, n/N (%) (patients with OAB; [6]): 7/242 (2.9) % | DBP Change from Baseline, Mean (95% CI) Max (patients with OAB; mean maximum from week 1 to 8): 5.19 (4.26, 6.13) mm Hg | HR Change from Baseline, Mean (95% CI) Maximum (patients with OAB; mean maximum from week 1 to 8): 5.66 (4.69, 6.63) bpm | SBP Change from Baseline, Mean (95% CI) Maximum (patients with OAB; mean maximum from week 1 to 8): 7.29 (6.01, 8.57) mm Hg | DBP Change from Baseline, Mean (95% CI) (week 1) (patients with OAB; week 1): −0.12 (−1.10, 0.86) mm Hg | HR Change from Baseline, Mean (95% CI) (week 1) (patients with OAB; week 1): 0.68 (−0.31, 1.67) bpm | SBP Change from Baseline, Mean (95% CI) (week 1) (patients with OAB; week 1): 0.04 (−1.36, 1.43) mm Hg | Micturitions: Week 12 CFB Mean ([2]; Males with BPH): −1.25 | Urgency Episodes: Week 12 CFB Mean ([2]; Males with BPH): −3.29 | UUI: Week 12 CFB Mean ([2]; Males with BPH): −2.15 | Micturitions: Week 12 CFB Mean ([2]; Males without BPH): −1.29 | Urgency Episodes: Week 12 CFB Mean ([2]; Males without BPH): −2.32 | UUI: Week 12 CFB Mean ([2]; Males without BPH): −2.05 | Micturitions: Week 12 CFB Mean ([2]; Overall for Males): −1.28 | Micturitions: Week 12 CFB Mean ([2]; Overall): −1.78 | Urgency Episodes: Week 12 CFB Mean ([2]; Overall): −2.57 | UUI: Week 12 CFB Mean ([2]; Overall): −1.75 | Micturitions, Week 12 LS Mean Change from Baseline (Placebo-Adjusted) [2, 7]: −0.3 | UUI Episodes, Week 12 LS Mean Change from Baseline (Placebo-Adjusted) [2, 7]: −0.4 | OAB-q Coping Score, Week 12 LS Mean Change from Baseline (Placebo-Adjusted) [2, 8]: 3.1 | Total Incontinence Episodes, Week 12 LS Mean Change from Baseline (Placebo-Adjusted) [2, 8]: −0.5 | Urgency Episodes, Week 12 LS Mean Change from Baseline (Placebo-Adjusted) [2, 8]: −0.4 | Volume Voided, Week 12 LS Mean Change from Baseline (Placebo-Adjusted) [2, 8]: 13.3 mL | PVR Categories at Week 12: <100 mL [3, 9]: 71.4% | PVR Categories at Week 12: ≥100 mL to <200 mL [3, 9]: 28.6% | PVR Categories at Week 12: ≥200 mL to <350 mL [3, 9]: 0% | PVR Categories at Week 12: ≥350 mL [3, 9]: 0% | PVR Mean Change from Baseline at Week 12 (SD) [3, 9]: 3.7 (50.64) mL | PVR Mean Change from Baseline at Week 12 (SD) [3, 10]: 10.2 (44.24) mL | PVR category <100 mL at Week 12 [3, 10]: 85.2% | PVR category ≥100 mL to <200 mL at Week 12 [3, 10]: 11.5% | PVR category ≥200 mL to <350 mL at Week 12 [3, 10]: 3.3% | PVR category ≥350 mL at Week 12 [3, 10]: 0 | PVR Categories at Week 12: <100 mL ([3]; study population as a whole): 86.5% | PVR Categories at Week 12: ≥100 mL to <200 mL ([3]; study population as a whole): 5.8% | PVR Categories at Week 12: ≥200 mL to <350 mL ([3]; study population as a whole): 0.7% | PVR Categories at Week 12: ≥350 mL ([3]; study population as a whole): 0% | PVR Mean Change from Baseline at Week 12 (SD) ([3]; study population as a whole): 3.1 (40.93) mL

COCCc1ccc(OCC(O)CNC(C)C)cc1 (stereo not shown) [Metoprolol, metoprolol succinate]
AUC0-∞ ratio of GLS mean, metoprolol + vibegron/metoprolol alone [4, 11]: 1.40 | Cmax ratio of GLS mean, metoprolol + vibegron/metoprolol alone [4, 11]: 1.49 | geometric mean Cmax and AUC in the presence of vibegron ([4]; metoprolol succinate 100 mg, vibegron 75 mg QD): increased slightly

O=C(O)C1OC(OC(c2ccccc2)C2CCC(Cc3ccc(NC(=O)C4CCc5nccc(=O)n54)cc3)N2)C(O)C(O)C1O (stereo not shown) [M7]
share of total circulating drug-related material in human plasma [5]: 12-14%
